Experimental data from a melting point compilation (Tetko et al.; mined from patent text by program, amines drawn as free bases though some values may be those of a salt).

Row | melting point [°C] | SMILES
1 | 184 | CN(C)c1cc(OC(F)(F)F)cc2sc(N)nc12
2 | 266 | COc1cc(C2=C(c3c(C)[nH]c4ccccc34)C(=O)NC2=O)cc(OC)c1OC
3 | 72 to 76 | O=C1c2ccccc2C(=O)N1CCCCCCN1CCC(C2(c3ccc(F)cc3)OCCO2)CC1
4 | 124 to 128 | CCCCCCCCCCCCCCCCCCOc1ccc(S(=O)(=O)Nc2ccccc2Cl)cc1NC(=O)CC(=O)N1CCc2ccccc21
5 | 256 to 258 | CNC(=O)c1ccccc1Nc1nc(Nc2cc3c(cc2OC)CCOC(=O)N3C)ncc1Cl
6 | 148 to 150 | COc1ccc2c(c1)NC(=O)C(Cl)(Cl)CC2
7 | 158 to 164 | COc1ccc(N2CCN(c3ccc(F)cc3)C(=O)C2)c(-c2ccc(N(C)C)cc2)n1
8 | 237 to 239 | CSCc1nn(-c2c(Cl)cc(C(F)(F)F)cc2Cl)nc1C=NC(C#N)=C(N)C#N
9 | 217 to 218 | CCn1ncc(C(=O)c2ccc(S(C)(=O)=O)c(-n3nc(C)cc3C)c2Cl)c1O
10 | 109 to 111 | O=c1cnc(C(F)(F)F)cn1-c1c(Cl)cc(C(F)(F)F)cc1Cl
11 | 132 to 133 | COc1cccc(-c2nc3n(n2)CCc2cc(OC)c(OC)cc2-3)c1
12 | 301 to 303 | Cc1cc2ncc(-c3nnnn3C)c(O)c2cc1C
13 | 254 to 256 | Nc1nc2ccccc2c2c1ncn2CCNC(=O)CCc1ccccc1
14 | 165 to 166 | CC(C)(NS(=O)(=O)c1ccc(-c2ccccn2)s1)C(=O)NO
15 | 228 to 230 | CC(=O)NCC1CN(c2ccc(N3CCN(c4nnc(N)s4)C(F)C3)cc2)C(=O)O1 (stereo not given)
16 | 150 to 152 | Cc1cccc(-c2nnn[nH]2)c1
17 | 46 | O=C1CCc2c(F)cc(F)cc2C1
18 | 178 to 180 | CC(Oc1ncn(-c2ccc(C(F)(F)F)cc2)n1)C(N)=O (stereo not given)
19 | 80 to 85 | CCCCCCCCCCCCOc1ccc(C=C(C(=O)OCC(O)CO)C(=O)OCC(O)CO)cc1 (stereo not given)
20 | 152 to 153 | COc1ccc(COC2CC(n3cc(C(F)(F)F)c(=O)n(C(=O)c4ccccc4)c3=O)OC2CO)cc1 (stereo not given)
21 | 226 to 227 | O=C(O)C1=C(c2ccccc2)c2cc(Cl)ccc2OC1C(F)(F)F (stereo not given)
22 | 120 to 130 | CN1CCC(C2(O)c3ccccc3Sc3cc(F)ccc32)CC1 (stereo not given)
23 | 146 to 149 | Cn1cc(CO)c(=O)c2ccc(C(C)(C)C)cc21
24 | 209 | O=C(Nc1cc2ncc(CN3CCCC3)cc2cc1Cl)c1ccc(-c2cc3ccccc3o2)cc1

Row | melting point [°C] | SMILES
25 | 100 | COc1cc(OC)c(C(C)=O)c(O)c1CCC(C)C
26 | 285 | O=C1c2ccc3c4cccc5cccc(c6ccc(c2c36)C(=O)N1C1CCCCCCCCCCC1)c54
27 | 220 to 224 | CCN1CNC(=O)NC1=O
28 | 103 to 105 | NC(=O)c1cccc(N)c1N
29 | 198 to 200 | CCn1ncc(C(=O)c2ccc(S(C)(=O)=O)c(Cl)c2Cl)c1O
30 | 202 to 203 | CCCn1c(=O)c2[nH]c(C)nc2n(CCC)c1=O
31 | 194 to 195 | O=C(Nc1cccc([N+](=O)[O-])c1)C1=C(Nc2ccccc2)COC1=O
32 | 105 to 107 | COc1ccc(-c2noc(C)n2)c(OC)c1C
33 | 166 to 167 | CCn1cc(C(=O)O)c(=O)cc1-c1ccccc1
34 | 130 to 131 | C=C1N(c2cccc3ccccc23)C(=O)OC12CCN(Cc1ccccc1)CC2
35 | 255 to 256 | CSc1ccc(-c2coc3ccc(-c4nnc(N)o4)cc23)cc1
36 | 135 to 137 | Cn1ncnc1COc1nn2c(-c3ccccc3F)nnc2cc1CC1CCCC1
37 | 76 to 77 | O=Cc1ccc(CSCCN2C(=O)c3ccccc3C2=O)o1
38 | 90 to 91 | O=[N+]([O-])c1ccc(Oc2ncc(C(F)(F)F)cc2Cl)cc1
39 | 70 to 72 | CCCCCCCCCCCCCCCCCCOc1cc(NC(=O)OC(C)(C)C)cc([N+](=O)[O-])c1
40 | 93 to 95 | CC=CCn1c(C)c(C)c2cnnc(OCc3ccc(F)cc3F)c21
41 | 84 to 85 | CCCC(C)(C)C(=O)NC1CCCNC(=O)C1 (stereo not given)
42 | 120 to 121 | Cc1ncnc(O)c1C
43 | 245 to 248 | COc1cc(C=CC(=O)Nc2c(-c3ccccc3)c3cc(C)cc(C)c3oc2=O)cc(OC)c1OC(C)=O
44 | 98.6 to 102 | O=C(Cc1ccncc1)N1CCC(=C2c3ccc(Cl)cc3CCc3c(On4nnc5ccccc54)ccnc32)CC1
45 | 80 to 81 | Nc1ccccc1OCCCCCN1CCC(OC(c2ccccc2)c2ccccc2)CC1
46 | 104 to 106 | COC(c1ccccc1)C(C)O (stereo not given)
47 | 257 to 263 | Cc1cc(CN2CCN(c3ccc(C(=O)NC4CC4)cc3)CC2)cc2c1OC(C)C(=O)N2 (stereo not given)
48 | 318 to 322 | Cc1[nH]cc2c(=O)n(-c3ccc(Cl)cc3)nc-2c1-c1cccc(C(=O)N2CCN(C)CC2)c1

Row | melting point [°C] | SMILES
49 | 72 to 73 | [N-]=[N+]=NCC(=O)N1CC(c2ccccc2)c2ccccc21 (stereo not given)
50 | 57 to 60 | COC(=O)Cc1ccc(OCCNC(=O)C2Cc3ccccc3N2S(=O)(=O)c2ccc(-c3cc(C)ccc3OC)cc2)cc1 (stereo not given)
51 | > 300 | O=C1NCN2c3ccccc3Oc3cccc1c32
52 | 80 to 85 | CC(C)COc1c(-c2ccc(S(N)(=O)=O)cc2)cnn(-c2cccc(Cl)c2)c1=O
53 | 201 | O=C(O)CCC1(c2ccc(Cl)c(Cl)c2)CCC(=O)NC1=O (single isomer, unassigned; (+))
54 | 64 to 67 | CC(C)CCCC(C)NC(=O)Oc1ccc(Oc2ccccc2)cc1Br (stereo not given)
55 | 144 to 146 | NC(=O)c1c(N)cccc1N1CCCC1
56 | 168 to 170 | Cc1cnc(CNC(=O)c2c(-c3ccccc3)c(-c3ccc(F)cc3)c(/C=C\[C@@H](O)C[C@@H](O)CC(=O)OC(C)(C)C)n2C(C)C)cn1
57 | 83 to 87 | COc1ccccc1-n1nnc2cc(F)c(N3C(=O)C4=C(CCCC4)C3=O)cc21
58 | 36 to 37 | COC(=O)CCC(O)C(=O)OC(C)(C)C (stereo not given)
59 | 40 to 41 | COc1cc(N)c(Cl)cc1Br
60 | 72.5 to 73.6 | COc1ccc(-c2nnn(-c3c(Cl)cc(Cl)cc3I)c2N)cc1
61 | 172 to 173 | CC(C)Cn1c(=O)n(C)c(=O)c2c(SCCCC(=O)O)c(Cc3cccc4ccccc34)sc21
62 | 170 to 172 | CCNC1(c2ccccc2Cl)C(=O)N(Cc2ccc(C(=O)NC(C)(C)CO)cc2)c2ccc(Cl)cc21 (stereo not given)
63 | 70 to 72 | CCOC(=O)CNC(=O)c1cccc(Cl)c1
64 | 206 | Cc1nn(-c2ccccn2)c2nc3ccc(C(F)(F)F)cc3c(Cl)c12
65 | 90 to 93 | CCOC(=O)c1ccc(NCc2ccccc2)cc1
66 | 144 to 145 | CCOc1n[nH]c(=O)n1C1CC1
67 | 70.5 to 72 | Clc1cncc(-n2cccc2)c1
68 | 176 to 179 | NS(=O)(=O)c1cc2c(s1)CCC(O)C2 (stereo not given)
69 | 102 | CCCCCCCCCCc1ccc(-c2ccc(OC)c(F)c2)cc1
70 | 79 to 81 | CCOC(=O)c1ccccc1NC(=O)CNc1ccccc1F
71 | 102 to 104 | COc1ccc2c(-c3ccc(Br)cc3)csc2c1
72 | 160 | Cn1cncc1C(O)(c1ccc(Cn2cnnn2)cc1)c1ccc2c(c1)c(-c1cccc(Cl)c1)cc(=O)n2C (stereo not given)

Row | melting point [°C] | SMILES
73 | 98 to 101 | CCCCCCCCC1(CCn2ccnc2)SCCS1
74 | 121 to 123 | CCOC(=O)c1nc2cc(C)sc2nc1N
75 | 41 to 43 | O=C(c1ccccc1)c1ccc(Br)s1
76 | 101 to 102 | CSc1ccc(C(=O)Cc2ccccc2)cc1Cl
77 | 93.5 | CC(CCCC(C)C1CCC2C3CC=C4CC(O)CCC4(C)C3CCC12C)CO[Si](C)(C)C(C)(C)C (stereo not given)
78 | 150 to 155 | COc1cc(N)c(Cl)cc1C(=O)NCC1CCN(CCCCCC(=O)c2ccc(Cl)cc2Cl)CC1
79 | 187 to 188 | O=C1NC(=O)C(c2ccc3ccccc3c2)O1 (stereo not given)
80 | 148 to 149 | CCOC(=O)C(C#N)=C1CC(C)(C)c2cc(OC)c(OC)cc21
81 | 134 to 136 | COc1ccc2c(c1CNC(=O)OCC1c3ccccc3-c3ccccc31)Oc1c(ccc(OC)c1CC(=O)O)C2(C)C
82 | 209 to 210 | CCOC(=O)c1cnn2c(-c3ccncc3)ccnc12
83 | 201 to 203 | COc1nc(C)c(N2CCCn3c2nc2c(OC)ccc(C(OC(F)F)C(F)(F)F)c23)c(C)n1 (stereo not given)
84 | 109 to 110 | COc1cc2c(cc1OCc1ccccc1)CCN(Cc1cccc([N+](=O)[O-])c1)C2
85 | 200 | O=c1[nH]c2ccc(CCN3CCN(c4nncc5ccccc45)CC3)cc2o1
86 | 66.5 to 67.5 | O=C(O)CCCCCCCCOc1ccccc1
87 | 206 to 208 | CC(=O)c1ccc(OCCCOc2cccc(NC(=O)c3nnn[nH]3)c2C#N)c(CCC(F)(F)F)c1O
88 | 140 to 141 | Cc1nc(N2CCCC(CCCc3ccccc3)C2=O)sc1C(=O)NCc1ccccc1 (stereo not given)
89 | 93 to 94 | CCOC(=O)c1cc2c(C)cccc2n1CCNC(=O)OC(C)(C)C
90 | 189 to 192 | CCCc1nc2c(N)nc3cc(OCc4ccc(F)cc4)ccc3c2s1
91 | 176 to 177 | CC(C)(C)c1ccc(NC(=O)c2ccc(C3=NCCS3)cc2)cc1
92 | 165 to 167 | Cc1cc(SCc2ccc(OCc3ccc(C(F)(F)F)cc3)cc2)c2c(c1OCC(=O)O)CCC2
93 | 204 to 206 | Nc1n[nH]c(-c2ccco2)n1
94 | 104 | Nc1ccc(S(=O)(=O)Oc2ccccc2)cc1[N+](=O)[O-]
95 | 219 to 220 | O=C(CCc1cccnc1)c1c(O)c2cccnc2n(-c2ccccc2)c1=O
96 | 99 to 100 | COC(=O)C(=O)c1ccc(OCC(=O)c2cccc3ccccc23)cc1

Row | SMILES | melting point [°C]
97 | O=C(O)C(=O)c1cn(Cc2ccc(F)cc2)c2ccc(-c3ccc(OC(F)(F)F)cc3)cc12 | 158 to 159
98 | COC(=O)C(C)Oc1cccc2c1c(C(=O)C(N)=O)c(C)n2Cc1ccccc1 (stereo not given) | 175
99 | CC(C)(C)NCC(O)c1cc(Cl)c(N)c(C#N)c1 (stereo not given) | 125 to 133
100 | CN1CCN(c2ccc([N+](=O)[O-])cn2)CC1 | 75 to 76
